Read-outs that look alike come from different tables or passages of the source.
Key:
Assay type in all cases: cell-based, human
[1] = system: J82 cells; experiment: CCK-8 anti-proliferative assay, J82; settings: Homo sapiens, J82; Table 10; co-incubated 48 h; read-out: Anti-proliferative activity (IC50 ± standard deviation) J82
Procedure, shortened: (§1)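 CCK-8 viability assay: compounds at final 1, 2, 4, 6, 8, 12, 16, 24 and 30 μM (3 wells each) added once cultures of 5,000 cells/well reached 70% confluence at 37° C, 5% CO2.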

[2] = system: UM-UC-3 cells; experiment: CCK-8 anti-proliferative assay, UM-UC-3; settings: Homo sapiens, UMUC3; Table 10; co-incubated 48 h; read-out: Anti-proliferative activity (IC50 ± standard deviation) UM-UC-3
Procedure, shortened: as §1

[3] = system: T24 cells; experiment: CCK-8 anti-proliferative assay, T24; settings: Homo sapiens, T-24; Table 10; co-incubated 48 h; read-out: Anti-proliferative activity (IC50 ± standard deviation) T24
Procedure, shortened: (§2)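 Growth inhibition was measured by CCK-8 in human cells seeded at 5,000 per well and treated at 70% confluency. Compound exposure spanned 1, 2, 4, 6, 8, 12, 16, 24 and 30 μM for designated durations at 37° C. Percent inhibition against vehicle control at OD 450 nm yielded median inhibitory concentrations.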

[4] = system: 5637 cells; experiment: CCK-8 anti-proliferative assay, 5637; settings: Homo sapiens; Table 10; co-incubated 48 h; read-out: Anti-proliferative activity (IC50 ± standard deviation) 5637
Procedure, shortened: as §1

[5] = system: 143B cells; experiment: CCK-8 anti-proliferative assay, 143B; settings: Homo sapiens, 143B; Table 11; co-incubated 48 h; read-out: Anti-proliferative activity (IC50 ± standard deviation) 143B
Procedure, shortened: as §2

[6] = system: MG-63 cells; experiment: CCK-8 anti-proliferative assay, MG-63; settings: Homo sapiens, MG-63; Table 11; co-incubated 48 h; read-out: Anti-proliferative activity (IC50 ± standard deviation) MG-63
Procedure, shortened: as §2

[7] = system: BxPC-3 cells; experiment: CCK-8 anti-proliferative assay, BxPC-3; settings: for IC50: Homo sapiens, BXPC-3, Table 11, co-incubated 48 h, read-out: Anti-proliferative activity (IC50 ± standard deviation) BxPC-3
Procedure, shortened: as §2

[8] = system: PANC-1 cells; experiment: CCK-8 anti-proliferative assay, PANC-1; settings: for IC50: Homo sapiens, PANC-1, Table 11, co-incubated 48 h, read-out: Anti-proliferative activity (IC50 ± standard deviation) PANC-1
Procedure, shortened: as §2

[9] = system: HeLa cells; experiment: CCK-8 anti-proliferative assay, HeLa; settings: Homo sapiens, HeLa; Table 12; co-incubated 48 h; read-out: Anti-proliferative activity (IC50 ± standard deviation) HeLa
Procedure, shortened: as §1

[10] = system: MCF-7 cells; experiment: CCK-8 anti-proliferative assay, MCF-7; settings: Homo sapiens, MCF7; Table 12; co-incubated 48 h; read-out: Anti-proliferative activity (IC50 ± standard deviation) MCF-7
Procedure, shortened: as §1

[11] = system: A549 cells; experiment: CCK-8 anti-proliferative assay, A549; settings: Homo sapiens, A549; Table 13; co-incubated 48 h; read-out: Anti-proliferative activity (IC50 ± standard deviation) A549
Procedure, shortened: as §1

[12] = system: Hep G2 cells; experiment: CCK-8 anti-proliferative assay, Hep G2; settings: for IC50: Homo sapiens, HepG2
Procedure, shortened: as §2

[13] = system: SK-OV-3 cells; experiment: CCK-8 anti-proliferative assay, SK-OV-3; settings: Homo sapiens, SK-OV-3; Table 12; co-incubated 48 h; read-out: Anti-proliferative activity (IC50 ± standard deviation) SK-OV-3
Procedure, shortened: as §1

[14] = system: immortalized ureteral epithelial cells (SV-HUC-1); experiment: CCK-8 anti-proliferative assay, normal cells SV-HUC-1; settings: Homo sapiens, SV-HUC1; Table 13; normal cells; co-incubated 48 h; read-out: Anti-proliferative activity (IC50 ± standard deviation) SV-HUC-1
Procedure, shortened: as §1

[15] = system: embryonic lung fibroblasts (WI-38); experiment: CCK-8 anti-proliferative assay, normal cells WI-38; settings: Homo sapiens, WI-38, Table 13, co-incubated 48 h, read-out: Anti-proliferative activity (IC50 ± standard deviation) WI-38
Procedure, shortened: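 Cells seeded at 5,000/well were grown at 37° C. under 5% CO2 to 70% confluency, then exposed in triplicate to 1–30 μM compound (1, 2, 4, 6, 8, 12, 16, 24, 30 μM) for designated durations. CCK-8 was added for 1–4 h, OD read at 450 nm, and IC50 derived from inhibition versus control.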

[16] = Table 12, co-incubated 48 h, read-out: Anti-proliferative activity (IC50 ± standard deviation) Hep G2

SMILES | IC50 [1] [µM] | IC50 [2] [µM] | IC50 [3] [µM] | IC50 [4] [µM] | IC50 [5] [µM] | IC50 [6] [µM] | IC50 [7] [µM] | IC50 [8] [µM] | IC50 [9] [µM] | IC50 [10] [µM] | IC50 [11] [µM] | IC50 [12, 16] [µM] | IC50 [13] [µM] | IC50 [14] [µM] | IC50 [15] [µM] | Sensitivity of BxPC-3 / anti-proliferative activity against BxPC-3, in words [7] | Sensitivity of PANC-1, in words [8] | Anti-proliferative activity against Hep G2 versus comparative series, in words [12] | IC50 ([12]; read-out: IC50 on Hep G2) [µM]
COc1cc2ncnc(NCc3cccc(NC(=O)Nc4cccc(C)c4)c3)c2cc1OCCCCCCN1CCC(CN2CCN(c3ccccn3)CC2)CC1 [Compound 8-2c, N-(3-(((7-methoxy-6-((6-(4-((4-(pyridin-2-yl)piperazin-1-yl)methyl)piperidin-1-yl)hexyl)oxy)quinazolin-4-yl)amino)methyl)phenyl)-N′-(3-methylphenyl)urea] | 7.02 ± 0.58 | 8.98 ± 0.89 | 7.29 ± 0.61 | 7.06 ± 0.57 | 6.01 ± 0.46 | 6.83 ± 0.62 | 13.4 ± 0.88 | 19.2 ± 1.08 | 6.19 ± 0.53 | 6.69 ± 0.48 | 8.39 ± 0.85 | 4.69 ± 0.36 | 7.94 ± 0.66 | 8.28 ± 0.51 | 11.2 ± 0.49 |  |  |  | 
COc1cc2ncnc(NCc3cccc(NC(=O)Nc4ccc(C)cc4)c3)c2cc1OCCCCCCN1CCC(CN2CCN(c3ccccn3)CC2)CC1 [Compound 8-2d, N-(3-(((7-methoxy-6-((6-(4-((4-(pyridin-2-yl)piperazin-1-yl)methyl)piperidin-1-yl)hexyl)oxy)quinazolin-4-yl)amino)methyl)phenyl)-N′-(4-methylphenyl)urea] | 13.8 ± 1.33 | 7.58 ± 0.79 | 6.62 ± 0.49 | 14.3 ± 0.89 | 6.92 ± 0.39 | 7.29 ± 0.62 | 9.29 ± 0.73 | 25.4 ± 2.04 | 4.79 ± 0.38 | 7.92 ± 0.51 | 9.23 ± 0.61 | 3.82 ± 0.25 | 6.79 ± 0.62 | 7.94 ± 0.44 | 9.79 ± 0.38 |  |  |  | 
COc1cc2ncnc(NCc3cccc(NC(=O)Nc4ccc(C)cc4C)c3)c2cc1OCCCCCCN1CCC(CN2CCN(c3ccccn3)CC2)CC1 [Compound 8-2e, N-(3-(((7-methoxy-6-((6-(4-((4-(pyridin-2-yl)piperazin-1-yl)methyl)piperidin-1-yl)hexyl)oxy)quinazolin-4-yl)amino)methyl)phenyl)-N′-(2,4-dimethylphenyl)urea] | 5.31 ± 0.26 | 6.68 ± 0.47 | 5.57 ± 0.36 | 4.31 ± 0.42 | 5.19 ± 0.33 | 7.03 ± 0.71 | 5.46 ± 0.44 | 8.37 ± 0.66 | 5.26 ± 0.29 | 7.65 ± 0.69 | 4.92 ± 0.29 | 3.68 ± 0.19 | 7.26 ± 0.72 | 7.56 ± 0.38 | 10.9 ± 0.66 | heightened sensitivity | heightened sensitivity | significantly better than that of 9a to 9y | 3.68 ± 0.19
COc1cc2ncnc(NCc3cccc(NC(=O)Nc4cc(C)cc(C)c4)c3)c2cc1OCCCCCCN1CCC(CN2CCN(c3ccccn3)CC2)CC1 [Compound 8-2f, N-(3-(((7-methoxy-6-((6-(4-((4-(pyridin-2-yl)piperazin-1-yl)methyl)piperidin-1-yl)hexyl)oxy)quinazolin-4-yl)amino)methyl)phenyl)-N′-(3,5-dimethylphenyl)urea] | 12 ± 0.87 | 12 ± 0.86 | 6.01 ± 0.46 | 6.91 ± 0.67 | 5.75 ± 0.36 | 6.92 ± 0.53 | 9.06 ± 0.42 | 12.8 ± 0.62 | 7.25 ± 0.38 | 8.09 ± 0.48 | 7.67 ± 0.93 | 11.7 ± 0.84 | 14.2 ± 0.84 | 11.6 ± 0.79 | 9.89 ± 0.53 |  |  |  | 
CCc1ccccc1NC(=O)Nc1cccc(CNc2ncnc3cc(OC)c(OCCCCCCN4CCC(CN5CCN(c6ccccn6)CC5)CC4)cc23)c1 [Compound 8-2g, N-(3-(((7-methoxy-6-((6-(4-((4-(pyridin-2-yl)piperazin-1-yl)methyl)piperidin-1-yl)hexyl)oxy)quinazolin-4-yl)amino)methyl)phenyl)-N′-(2-ethylphenyl)urea] | 5.76 ± 0.31 | 11.6 ± 0.62 | 7.04 ± 0.55 | 6.04 ± 0.43 | 5.37 ± 0.29 | 6.04 ± 0.65 | 8.56 ± 0.72 | 8.79 ± 0.98 | 5.62 ± 0.44 | 7.62 ± 0.77 | 6.59 ± 0.64 | 6.38 ± 0.44 | 8.96 ± 0.83 | 7.42 ± 0.35 | 9.39 ± 0.41 |  |  |  | 
COc1cc2ncnc(NCc3cccc(NC(=O)Nc4ccc(C(C)C)cc4)c3)c2cc1OCCCCCCN1CCC(CN2CCN(c3ccccn3)CC2)CC1 [Compound 8-2i, N-(3-(((7-methoxy-6-((6-(4-((4-(pyridin-2-yl)piperazin-1-yl)methyl)piperidin-1-yl)hexyl)oxy)quinazolin-4-yl)amino)methyl)phenyl)-N′-(4-isopropylphenyl)urea] | 5.88 ± 0.35 | 6.32 ± 0.44 | 5.92 ± 0.47 | 4.24 ± 0.32 | 6.38 ± 0.33 | 4.79 ± 0.46 | 8.97 ± 0.89 | 9.42 ± 0.83 | 4.97 ± 0.48 | 6.21 ± 0.63 | 7.63 ± 0.87 | 3.85 ± 0.29 | 6.69 ± 0.49 | 10.8 ± 0.74 | 10.5 ± 0.36 |  |  |  | 
COc1ccccc1NC(=O)Nc1cccc(CNc2ncnc3cc(OC)c(OCCCCCCN4CCC(CN5CCN(c6ccccn6)CC5)CC4)cc23)c1 [Compound 8-2k, N-(3-(((7-methoxy-6-((6-(4-((4-(pyridin-2-yl)piperazin-1-yl)methyl)piperidin-1-yl)hexyl)oxy)quinazolin-4-yl)amino)methyl)phenyl)-N′-(2-methoxyphenyl)urea] | 5.68 ± 0.42 | 7.19 ± 0.52 | 5.34 ± 0.27 | 5.63 ± 0.38 | 6.08 ± 0.37 | 6.38 ± 0.43 | 7.11 ± 0.79 | 15.9 ± 0.94 | 5.51 ± 0.49 | 6.68 ± 0.79 | 14.2 ± 1.31 | 4.99 ± 0.47 | 6.32 ± 0.56 | 13 ± 0.88 | 11.2 ± 0.65 |  |  |  | 
COc1ccc(NC(=O)Nc2cccc(CNc3ncnc4cc(OC)c(OCCCCCCN5CCC(CN6CCN(c7ccccn7)CC6)CC5)cc34)c2)cc1 [Compound 8-2l, N-(3-(((7-methoxy-6-((6-(4-((4-(pyridin-2-yl)piperazin-1-yl)methyl)piperidin-1-yl)hexyl)oxy)quinazolin-4-yl)amino)methyl)phenyl)-N′-(4-methoxyphenyl)urea] | 7.83 ± 0.69 | 12 ± 0.94 | 6.02 ± 0.46 | 9.12 ± 0.59 | 6.75 ± 0.41 | 7.69 ± 0.58 | 18.9 ± 1.24 | > 30 | 6.42 ± 0.69 | 7.29 ± 0.63 | > 30 | 4.74 ± 0.62 | 11.7 ± 0.88 | 10.9 ± 0.69 | 13.9 ± 0.71 |  |  |  | 
COc1cc2ncnc(NCc3cccc(NC(=O)Nc4ccc(F)cc4)c3)c2cc1OCCCCCCN1CCC(CN2CCN(c3ccccn3)CC2)CC1 [Compound 8-2n, N-(3-(((7-methoxy-6-((6-(4-((4-(pyridin-2-yl)piperazin-1-yl)methyl)piperidin-1-yl)hexyl)oxy)quinazolin-4-yl)amino)methyl)phenyl)-N′-(4-fluorophenyl)urea] | 15 ± 1.19 | 12.8 ± 0.76 | 5.82 ± 0.36 | 8.61 ± 0.73 | 6.71 ± 0.48 | 8.39 ± 0.66 | 14.4 ± 1.55 | 18.8 ± 1.43 | 12.7 ± 0.92 | 12.8 ± 0.85 | 15.4 ± 0.83 | 8.51 ± 0.67 | 5.93 ± 0.61 | 14.4 ± 0.77 | 9.98 ± 0.53 |  |  |  | 

— patent publication US20260285816A1, “Piperazinyl-Modified Quinazolinyl-Aryl Urea Derivative, And Preparation Method And Use Thereof” (Guangxi Normal University, priority 2025, published 2026)
